Results from the supplement of paper PMC11451515.

What was measured:
Conditions in all cases: 48 h
SEM cells [1] = assay: AUC of viability dose-response curve (% viability x log10 dose units); higher = less sensitive
Outline: (§1)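 In 1536-well plates, leukemia cells adapted to each medium (500 or 1000 cells/well) were exposed for 48 h at 37°C to library compounds in DMSO across 11 threefold doses, 47 μM down to 0.79 nM. Viability was read by CellTiter-Glo One luminescence and normalised per plate to DMSO and cell-free wells. A four-parameter log-logistic fit over log10 doses was integrated by trapezoidal rule. This yielded the area under the curve, with over-full-viability curves scaled and quality-control failures dropped.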

P12-Ichikawa [2] = assay: as above
Outline: as §1

NOMO1 [3] = assay: as above
Outline: as §1

SEM cells [4] = assay: cell viability relative to DMSO control; higher = less cytotoxic
Outline: (§2)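 Library compounds in DMSO were pin-dosed into 1536-well plates (5 μl) holding NOMO1 or SEM (500 cells/well) or P12-Ichikawa (1000 cells/well) leukemia cells, across an 11-point threefold series of 47 μM to 0.79 nM. Each cell line had been adapted for at least four passages in each medium. CellTiter-Glo One luminescence was read after 48 h at 37°C. Viability is the per-plate percentage relative to DMSO wells, with cell-free wells as background.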

P12-Ichikawa [5] = assay: as above
Outline: as §2

NOMO1 [6] = assay: as above
Outline: as §2

COc1cccc2c1C(=O)c1c(O)c3c(c(O)c1C2=O)C[C@@](O)(C(=O)CO)C[C@@H]3O[C@H]1C[C@H](N)[C@H](O)[C@H](C)O1
AUC of viability dose-response curve
Conditions	NOMO1 [3]	P12-Ichikawa [2]	SEM cells [1]
HPLM + 10% dialyzed FBS	367	338	286
RPMI 5 mM glucose + 10% FBS	369	326	268
RPMI 5 mM glucose + 10% dialyzed FBS	374	346	271

cell viability [%]
Conditions	NOMO1 [6]	P12-Ichikawa [5]	SEM cells [4]
HPLM + 10% dialyzed FBS, 0.000781 µM	112	115	96.4
HPLM + 10% dialyzed FBS, 0.00234 µM	127	114	103
HPLM + 10% dialyzed FBS, 0.00702 µM	108	112	117
HPLM + 10% dialyzed FBS, 0.0211 µM	120	117	124
HPLM + 10% dialyzed FBS, 0.0632 µM	96.2	116	105
HPLM + 10% dialyzed FBS, 0.19 µM	108	107	92.4
HPLM + 10% dialyzed FBS, 0.569 µM	116	98.6	47.5
HPLM + 10% dialyzed FBS, 1.71 µM	90.2	58.2	12.9
HPLM + 10% dialyzed FBS, 5.12 µM	8.77	7.45	6.97
HPLM + 10% dialyzed FBS, 15.4 µM	37.4	5.63	4.92
HPLM + 10% dialyzed FBS, 46.1 µM	6.99	11.9	3.63
RPMI 5 mM glucose + 10% FBS, 0.000781 µM	116	113	–
RPMI 5 mM glucose + 10% FBS, 0.00234 µM	111	116	–
RPMI 5 mM glucose + 10% FBS, 0.00702 µM	107	119	–
RPMI 5 mM glucose + 10% FBS, 0.0211 µM	115	114	–
RPMI 5 mM glucose + 10% FBS, 0.0632 µM	102	113	–
RPMI 5 mM glucose + 10% FBS, 0.19 µM	102	108	–
RPMI 5 mM glucose + 10% FBS, 0.569 µM	108	93.8	–
RPMI 5 mM glucose + 10% FBS, 1.71 µM	102	44.7	–
RPMI 5 mM glucose + 10% FBS, 5.12 µM	7.5	7.04	–
RPMI 5 mM glucose + 10% FBS, 15.4 µM	25.6	5.82	–
RPMI 5 mM glucose + 10% FBS, 46.1 µM	6.28	8.62	–
RPMI 5 mM glucose + 10% dialyzed FBS, 0.000781 µM	112	109	106
RPMI 5 mM glucose + 10% dialyzed FBS, 0.00234 µM	116	114	100
RPMI 5 mM glucose + 10% dialyzed FBS, 0.00702 µM	105	108	108
RPMI 5 mM glucose + 10% dialyzed FBS, 0.0211 µM	104	107	92
RPMI 5 mM glucose + 10% dialyzed FBS, 0.0632 µM	107	117	101
RPMI 5 mM glucose + 10% dialyzed FBS, 0.19 µM	110	106	69.9
RPMI 5 mM glucose + 10% dialyzed FBS, 0.569 µM	100	92.2	40.1
RPMI 5 mM glucose + 10% dialyzed FBS, 1.71 µM	104	67	9.78
RPMI 5 mM glucose + 10% dialyzed FBS, 5.12 µM	8.85	7.81	5.67
RPMI 5 mM glucose + 10% dialyzed FBS, 15.4 µM	34.3	7.58	3.74
RPMI 5 mM glucose + 10% dialyzed FBS, 46.1 µM	5.09	13	2.82

O=C(O)CCNC(=O)c1ccc(/N=N/c2ccc(O)c(C(=O)O)c2)cc1
AUC of viability dose-response curve
Conditions	NOMO1 [3]	P12-Ichikawa [2]	SEM cells [1]
HPLM + 10% dialyzed FBS	465	469	443
RPMI 5 mM glucose + 10% FBS	469	447	454
RPMI 5 mM glucose + 10% dialyzed FBS	468	443	464

cell viability [%]
Conditions	NOMO1 [6]	P12-Ichikawa [5]	SEM cells [4]
HPLM + 10% dialyzed FBS, 0.000781 µM	–	115	116
HPLM + 10% dialyzed FBS, 0.00234 µM	–	116	108
HPLM + 10% dialyzed FBS, 0.00702 µM	–	114	118
HPLM + 10% dialyzed FBS, 0.0211 µM	–	114	109
HPLM + 10% dialyzed FBS, 0.0632 µM	–	110	106
HPLM + 10% dialyzed FBS, 0.19 µM	–	120	105
HPLM + 10% dialyzed FBS, 0.569 µM	–	109	98.9
HPLM + 10% dialyzed FBS, 1.71 µM	–	115	105
HPLM + 10% dialyzed FBS, 5.12 µM	–	112	103
HPLM + 10% dialyzed FBS, 15.4 µM	–	110	101
HPLM + 10% dialyzed FBS, 46.1 µM	–	113	96.7
RPMI 5 mM glucose + 10% FBS, 0.000781 µM	106	–	–
RPMI 5 mM glucose + 10% FBS, 0.00234 µM	125	–	–
RPMI 5 mM glucose + 10% FBS, 0.00702 µM	113	–	–
RPMI 5 mM glucose + 10% FBS, 0.0211 µM	122	–	–
RPMI 5 mM glucose + 10% FBS, 0.0632 µM	110	–	–
RPMI 5 mM glucose + 10% FBS, 0.19 µM	110	–	–
RPMI 5 mM glucose + 10% FBS, 0.569 µM	117	–	–
RPMI 5 mM glucose + 10% FBS, 1.71 µM	106	–	–
RPMI 5 mM glucose + 10% FBS, 5.12 µM	117	–	–
RPMI 5 mM glucose + 10% FBS, 15.4 µM	116	–	–
RPMI 5 mM glucose + 10% FBS, 46.1 µM	76.7	–	–

CCCCCCCCCCCCCC(=O)N[C@H](CO)[C@H](O)c1ccc([N+](=O)[O-])cc1
AUC of viability dose-response curve
Conditions	NOMO1 [3]	P12-Ichikawa [2]	SEM cells [1]
HPLM + 10% dialyzed FBS	342	369	296
RPMI 5 mM glucose + 10% FBS	323	328	276
RPMI 5 mM glucose + 10% dialyzed FBS	327	318	280

cell viability [%]
Conditions	NOMO1 [6]	P12-Ichikawa [5]	SEM cells [4]
HPLM + 10% dialyzed FBS, 0.000781 µM	92.5	99.4	97.4
HPLM + 10% dialyzed FBS, 0.00234 µM	98.8	90.6	81.4
HPLM + 10% dialyzed FBS, 0.00702 µM	99.1	100	89.5
HPLM + 10% dialyzed FBS, 0.0211 µM	105	104	95.4
HPLM + 10% dialyzed FBS, 0.0632 µM	105	102	98.9
HPLM + 10% dialyzed FBS, 0.19 µM	90.8	102	65.1
HPLM + 10% dialyzed FBS, 0.569 µM	108	105	79.7
HPLM + 10% dialyzed FBS, 1.71 µM	49.9	79.7	39.8
HPLM + 10% dialyzed FBS, 5.12 µM	16.8	40.3	13.8
HPLM + 10% dialyzed FBS, 15.4 µM	3.54	2.44	3.54
HPLM + 10% dialyzed FBS, 46.1 µM	2.02	1.98	2.38
RPMI 5 mM glucose + 10% FBS, 0.000781 µM	91.2	96.9	99.6
RPMI 5 mM glucose + 10% FBS, 0.00234 µM	82.8	94.2	76.1
RPMI 5 mM glucose + 10% FBS, 0.00702 µM	99.6	95.5	89.1
RPMI 5 mM glucose + 10% FBS, 0.0211 µM	90.2	92.7	103
RPMI 5 mM glucose + 10% FBS, 0.0632 µM	98.2	102	95.5
RPMI 5 mM glucose + 10% FBS, 0.19 µM	91.3	84.9	55.4
RPMI 5 mM glucose + 10% FBS, 0.569 µM	93	89.1	66.5
RPMI 5 mM glucose + 10% FBS, 1.71 µM	51	55.1	25.1
RPMI 5 mM glucose + 10% FBS, 5.12 µM	21.5	21.1	9.49
RPMI 5 mM glucose + 10% FBS, 15.4 µM	3.33	3.47	3.9
RPMI 5 mM glucose + 10% FBS, 46.1 µM	2.43	1.51	2.41
RPMI 5 mM glucose + 10% dialyzed FBS, 0.000781 µM	83.2	89.4	87.3
RPMI 5 mM glucose + 10% dialyzed FBS, 0.00234 µM	95	81.5	81.9
RPMI 5 mM glucose + 10% dialyzed FBS, 0.00702 µM	95.7	90.9	85.2
RPMI 5 mM glucose + 10% dialyzed FBS, 0.0211 µM	90.6	94	94.3
RPMI 5 mM glucose + 10% dialyzed FBS, 0.0632 µM	92.2	94.8	93.1
RPMI 5 mM glucose + 10% dialyzed FBS, 0.19 µM	93	85.8	55.2
RPMI 5 mM glucose + 10% dialyzed FBS, 0.569 µM	94.1	93.4	83
RPMI 5 mM glucose + 10% dialyzed FBS, 1.71 µM	59.4	52	36
RPMI 5 mM glucose + 10% dialyzed FBS, 5.12 µM	23.2	24.6	8.3
RPMI 5 mM glucose + 10% dialyzed FBS, 15.4 µM	4.12	4.09	4.49
RPMI 5 mM glucose + 10% dialyzed FBS, 46.1 µM	2.14	2.4	2.85
